For orientation: melting point means the temperature, or range, at which the solid turns liquid.

One series deals with Chenopodium album. As to the kind of experiment: greenhouse post-emergence herbicidal test. The note with it: post-emergence method, application rates of 0.5 or 0.25 kg/ha, Chenopodium album (lambsquarters). Type of series: in vivo. The text has this:
(§1) The seeds of the test plants were sown separately for each species. For post-emergence treatment, the test plants were first grown to a plant height of from 3 to 15 cm, depending on the plant habit, and only then treated with the active compounds which had been suspended or emulsified in water. For this purpose, the test plants were either sown directly and grown in the same containers, or they were first grown separately as seedlings and transplanted into the test containers a few days prior to the treatment. The application rate for the post-emergence treatment was 0.5 or 0.25 kg of a.s./ha. Depending on the species, the plants were kept at 10–25° C. or 20–35° C. The test period extended over 2 to 4 weeks. During this time, the plants were tended, and their response to the individual treatments was evaluated. Evaluation was carried out using a scale from 0 to 100. 100 means no emergence of the plants, or complete destruction of at least the above-ground parts, and 0 means no damage, or normal course of growth. The plants used in the greenhouse trials were of the following species: [table]

A further series has as its system Echinochloa crusgalli. As to the kind of experiment: greenhouse post-emergence herbicidal test. The format is in vivo. To be noted: post-emergence method, application rates of 0.5 or 0.25 kg/ha, Echinochloa crusgalli (barnyardgrass).
From the text: as §1

A further series has as its system Setaria viridis. As to the kind of experiment: greenhouse post-emergence herbicidal test. The format is in vivo. To be noted: post-emergence method, application rates of 0.5 or 0.25 kg/ha, Setaria viridis (green foxtail).
From the text: as §1

The next series relates to Solanum nigrum. As to the kind of experiment: greenhouse post-emergence herbicidal test. The format is in vivo. To be noted: post-emergence method, application rates of 0.5 or 0.25 kg/ha, Solanum nigrum (black nightshade).
From the text: as §1

The next series deals with Veronica ssp. As to the kind of experiment: greenhouse post-emergence herbicidal test. The format is in vivo. The note with it: post-emergence method, application rates of 0.5 or 0.25 kg/ha.
From the text: as §1

In turn, `Cn1ncc(C(=O)c2ccc(S(C)(=O)=O)c3c2CC2CON=C32)c1OC(=O)c1ccccc1` (stereo not drawn) [compound 2.2, (5-Phenylcarbonyloxy-1-methyl-1H-pyrazol-4-yl)-(8-methyl-sulfonyl-3a,4-dihydro-3H-indeno[1,2-c]isoxazol-5-yl)methanone] gave a melting point of 86 to 93 °C. For the same molecule, in the series on Chenopodium album, the herbicidal activity result is reported as “very good activity”. Besides, in the series on Echinochloa crusgalli, the herbicidal activity result is listed as “very good activity”. For the same molecule, the herbicidal activity result with Setaria viridis is listed as “very good activity”. The herbicidal activity entry in the series with Solanum nigrum is “very good activity”. The herbicidal activity result in the series with Veronica ssp. is listed as “very good activity”.

(Values after patent publication US7115545B1, “Tricyclic benzoylpyrazole derivatives used as a herbicide” (BASF Aktiengesellschaft, priority 1999, dated 2006).)
